From the NIST ThermoML archive (doi:10.1021/je050402s)

Assay: xn = mol fraction of the nth substance listed
Settings: 100.5 kPa, Liquid; for viscosity: Capillary tube (Ostwald / Ubbelohde) method

CCOC(=O)CC(C)=O [ethyl 3-oxobutanoate] + CCO
Settings	mass density, 288.15 K [kg/m3]	mass density, 298.15 K [kg/m3]	mass density, 308.15 K [kg/m3]	mass density, 318.15 K [kg/m3]	viscosity, 288.15 K [mPa·s]	viscosity, 298.15 K [mPa·s]	viscosity, 308.15 K [mPa·s]	viscosity, 318.15 K [mPa·s]
x1 = 0.05	818.78	809.91	800.94	791.8	1.266	1.042	0.869	0.731
x1 = 0.1	841	831.89	822.68	813.32	1.204	1.001	0.841	0.713
x1 = 0.15	860.94	851.63	842.22	832.67	1.19	0.99	0.832	0.709
x1 = 0.2	878.93	869.45	859.89	850.17	1.194	0.994	0.837	0.712
x1 = 0.25	895.25	885.63	875.91	866.05	1.206	1.003	0.846	0.721
x1 = 0.3	910.15	900.41	890.57	880.6	1.226	1.019	0.86	0.735
x1 = 0.35	923.79	913.94	903.99	893.92	1.25	1.038	0.878	0.751
x1 = 0.4	936.31	926.37	916.34	906.18	1.28	1.061	0.898	0.768
x1 = 0.45	947.86	937.83	927.73	917.49	1.312	1.087	0.921	0.789
x1 = 0.5	958.56	948.47	938.29	927.99	1.349	1.117	0.947	0.812
x1 = 0.55	968.53	958.37	948.11	937.75	1.39	1.151	0.974	0.836
x1 = 0.6	977.79	967.55	957.24	946.84	1.435	1.189	1.004	0.861
x1 = 0.65	986.4	976.13	965.77	955.36	1.484	1.227	1.036	0.888
x1 = 0.7	994.51	984.17	973.79	963.33	1.536	1.27	1.073	0.917
x1 = 0.75	1002.07	991.71	981.29	970.82	1.591	1.316	1.112	0.948
x1 = 0.8	1009.18	998.79	988.36	977.88	1.65	1.366	1.154	0.983
x1 = 0.85	1015.85	1005.46	995.02	984.54	1.709	1.415	1.199	1.018
x1 = 0.9	1022.16	1011.74	1001.3	990.84	1.773	1.471	1.247	1.059
x1 = 0.95	1028.15	1017.72	1007.29	996.82	1.834	1.524	1.295	1.103
x1 = 1	1033.92	1023.45	1013	1002.54	1.902	1.581	1.344	1.144
